In data set [1] the test system is Hypoxia-induced pulmonary hypertension mice. Briefly: Hypoxia-induced pulmonary hypertension mice, right heart catheterization. Format: in vivo, mice (C57/BL6). Particulars: hypoxia (10% oxygen) 3 weeks, intravenous once daily, itraconazole 20 mg/kg/day, mebendazole 25 mg/kg/day, vs vehicle; for right ventricular systolic pressure: FIG. 1. As to the method: (§1) Hypoxia-induced pulmonary hypertension mice serving as a model generally used in an animal experiment for pulmonary hypertension were intravenously administered itraconazole or mebendazole. Specifically, first, 8-week-old male wild-type mice (C57/BL6 mice, n=10 per group) were housed in a transparent acrylic box with an oxygen concentration controlled to 10% using a hypoxia generator (Teijin Limited, Japan) under a 12 h light and dark cycle. The mice were stimulated by hypoxia for 3 weeks, and in this period, were intravenously injected with itraconazole (the following solution was used as itraconazole: 100 mg of itraconazole was dissolved in 6.7 ml of dimethyl sulfoxide, and the solution of itraconazole in dimethyl sulfoxide was mixed with ultrapure water (mQ or ultrapure water) to prepare a 100 ml solution) once daily at a dose of 20 mg/kg/day. As a Vihicle group, the following test was performed: the mice were stimulated by hypoxia in the same manner as described above except that the mice were intravenously injected with a 1:15 (V/V) mixed solution of dimethyl sulfoxide and ultrapure water in place of itraconazole as a diet. In addition, a mebendazole administration test for hypoxia-induced pulmonary hypertension mice was performed in the same manner as described above except that the mice were intravenously injected with mebendazole in place of itraconazole (the following solution was used as mebendazole: 100 mg of mebendazole was dissolved in 6.7 ml of dimethyl sulfoxide, and the solution of mebendazole in dimethyl sulfoxide was mixed with ultrapure water (mQ or ultrapure water) to prepare a 100 ml solution) at a dose of 25 mg/kg/day.
After the hypoxic stimulation for 3 weeks, a 1.2-Fr catheter (SciSense Inc., Ontario, Canada) was inserted in the jugular vein of the mice under isoflurane anesthesia and advanced into the right ventricle to measure a right ventricular systolic pressure. The average body weights of the Vehicle group, the itraconazole administration group, and the mebendazole administration group before the test were 16.3±0.2 g, 16.8±0.3 g, and 16.8.±0.3 g, respectively. In addition, the average body weights of the Vehicle group, the itraconazole administration group, and the mebendazole administration group after the test were 18.±0.2 g, 17.2±0.2 g, and 17.5±0.2 g, respectively.

Data set [2] deals with pulmonary artery smooth muscle cells. Briefly: Excessive proliferation of pulmonary artery smooth muscle cells (compound investigation). In kind it is cell-based. From the text: Under such circumstances, the inventors of the present invention have investigated thousands of kinds of compounds. […] The present invention is based on such novel findings.
Data set [3] is described as follows: Body weight of hypoxia-induced pulmonary hypertension mice. Format: in vivo, mice (C57/BL6). To be noted: for average body weight after the test: after 3 weeks hypoxia and once daily intravenous dosing, itraconazole 20 mg/kg/day, mebendazole 25 mg/kg/day. As to the method: as §1
After the hypoxic stimulation for 3 weeks, a 1.2-Fr catheter (SciSense Inc., Ontario, Canada) was inserted in the jugular vein of the mice under isoflurane anesthesia and advanced into the right ventricle to measure a right ventricular systolic pressure. […]

Data set [4] can be described thus: Body weight of rats with Sugen/hypoxia-induced PH. Format: in vivo, rats (Sprague-Dawley). To be noted: mebendazole 25 mg per kg intravenously once daily for 14 days, vs vehicle control. As to the method: Rats (Sprague-Dawley, male, 6-week-old) were injected subcutaneously with a VEGF-receptor inhibitor SU5416 (Sigma-Aldrich) (20 mg per kg body weight) under isoflurane anesthesia and were then exposed to hypoxia (10% 02) for 3 weeks (hypoxia+SU5416). On day 21, the rats were randomized to be intravenously injected with mebendazole (25 mg per kg body weight) or vehicle (the rats were administered dimethyl sulfoxide in place of mebendazole solution) once daily under normoxia (21% O2) for 2 weeks. The vehicle administration group is expressed as vehicle control. […] On day 35, the rats were anesthetized with isoflurane (1.0%) to measure RVSP and RVH. Thus, the development of PH was assessed.

For data set [5], the system named is Sugen/hypoxia-induced hypertension rat model. Kind of data set: Sugen/hypoxia-induced pulmonary hypertension rat model, RVSP and RVH. In kind it is in vivo, rats (Sprague-Dawley). As to the method: In this test, a vehicle treatment group was used as a control. A Sugen/hypoxia-induced hypertension rat model was used to assess pulmonary hypertension (PH) (Non-patent Literature 2). In order to assess the development of pulmonary hypertension, right ventricular systolic pressure (RVSP) and right ventricular hypertrophy (RVH) were measured (Non-patent Literatures 2 to 4).
For right heart catheterization, a 1.4-F (for rats) pressure measurement catheter (Transonic Scisense) was inserted into the right jugular vein and advanced into the right ventricle to measure RVSP (Non-patent Literature 5).
In the Sugen/hypoxia model, rats (Sprague-Dawley, male, 6-week-old) were injected subcutaneously with a VEGF-receptor inhibitor SU5416 (Sigma-Aldrich, St Louis, Mo.) (20 mg per kg body weight) under isoflurane anesthesia and were then exposed to hypoxia (10% O2) for 3 weeks. After the indicated period of treatment below, the rats were anesthetized with isoflurane (1.5%) to perform right heart catheterization. All data were analyzed using the PowerLab data acquisition system (AD Instruments, Bella Vista, Australia) and were averaged over 50 sequential beats (Non-patent Literatures 2 to 5).
Hearts were dissected and the right ventricular free wall (RV) was removed from the left ventricle (LV) and septum. The ratio of right ventricular free wall (RV) weight to left ventricle plus septum (LV+Septum) weight [RV/(LV+S)] was measured to assess the extent of RVH (Non-patent Literature 2).
Rats (Sprague-Dawley, male, 6-week-old) were injected subcutaneously with a VEGF-receptor inhibitor SU5416 (Sigma-Aldrich) (20 mg per kg body weight) under isoflurane anesthesia and were then exposed to hypoxia (10% 02) for 3 weeks (hypoxia+SU5416). On day 21, the rats were randomized to be intravenously injected with mebendazole (25 mg per kg body weight) or vehicle (the rats were administered dimethyl sulfoxide in place of mebendazole solution) once daily under normoxia (21% O2) for 2 weeks. The vehicle administration group is expressed as vehicle control. […] Thus, the development of PH was assessed.

The mark [6] stands for this setting: hypoxia+SU5416 3 weeks, then mebendazole 25 mg per kg intravenously once daily for 2 weeks under normoxia, day 35, vs vehicle control, FIG. 2.

Entries after “also recorded” stand apart in the source; their conditions may differ.

Take `CCC(C)n1ncn(-c2ccc(N3CCN(c4ccc(OC[C@H]5CO[C@](Cn6cncn6)(c6ccc(Cl)cc6Cl)O5)cc4)CC3)cc2)c1=O` (stereo partly shown) [itraconazole]: in data set [1], the right ventricular hypertrophy result was “Significant reductions” and the “right ventricular systolic pressure” value is reported as “Significant reductions”. Moreover, in data set [2], the “excessive proliferation of pulmonary artery smooth muscle cells” value is “suppresses excessive proliferation”. In addition, the “average body weight after the test” value in data set [3] was 17.2 ± 0.2 g. In addition, the “average body weight before the test” value in data set [3] (before the test (baseline), mice n=10 per group) came to 16.8 ± 0.3 g.
As for `COC(=O)Nc1nc2ccc(C(=O)c3ccccc3)cc2[nH]1` [mebendazole, methyl (5-benzoyl-1H-benzo[d]imidazol-2-yl)carbamate], in data set [1], the right ventricular hypertrophy entry was “Significant reductions” and the “right ventricular systolic pressure” value is “Significant reductions”. In addition, the body weight result in data set [4] is “no significant difference; also recorded: no influence”. The “excessive proliferation of pulmonary artery smooth muscle cells” value in data set [2] is reported as “suppresses excessive proliferation”. Besides, the “average body weight after the test” value in data set [3] was 17.5 ± 0.2 g. For the same compound, the “PH in the animal model in vivo” value in data set [5] (Sugen/hypoxia rats, mebendazole 25 mg per kg intravenously once daily for 14 days) is “ameliorated”. Further, in data set [5] (setting [6]), the “right ventricular hypertrophy (RVH), RV/(LV+S)” value is on record as “reduced” and the “right ventricular systolic pressure (RVSP)” value was “reduced”.

The record behind these values is patent US11369601B2, “Prophylactic or therapeutic agent for pulmonary hypertension comprising mebendazole and/or itraconazole or salt thereof” (TOHOKU UNIVERSITY, priority 2017, dated 2022).
